Data as given in US20030118577A1, “Use of analogues of superoxide dismutase for treating hepatocellular insufficiencies” (priority 2000, published 2003).

System: acute hepatic insufficiency induced by acetaminophen
Test: Survival of mice after intraperitoneal acetaminophen (acute hepatic insufficiency)
Protocol: The intraperitoneal injection of acetaminophen into mice induces a severe hepatotoxicity, the degree of which may be evaluated by the survival of the animals, measuring transaminase activities, and macroscopic and microscopic examination of the livers.
The acetaminophen in solution at 100 mg/ml in PBS at pH 7.4 is administered by the intraperitoneal route.
In a first series of experiments, a group of mice received a dose of 1000 mg/kg of acetaminophen; a second group received a dose of 1000 mg/kg of acetaminophen and a dose of 10 mg/kg of MnTBAP administered either 2 h before the acetaminophen or 6 h after; a control group received either MnTBAP alone (10 mg/kg), or PBS alone.
The survival of the animals is monitored for 24 hours after the administration of acetaminophen.
The effect of N-acetyl-L-cysteine (NAC), of CuDIPS, and of MnTBAP on the survival of mice after intraperitoneal injection of 1000 mg/kg of acetaminophen (APAP) was compared.
MnTBAP, NAC, or CuDIPS are administered in the form of a bolus, preventively, 2 hours before (P) or, curatively, 6 hours after (C) the acetaminophen.
The survival of the animals is monitored for 24 hours after administration of acetaminophen.

## CC(=O)N[C@@H](CS)C(=O)O [NAC, N-acetyl-L-cysteine]
APAP 1000 mg/kg, 6 hours after (C) or 2 hours before (P)
  activity on survival, curative versus preventive administration: only active preventively
Group X: APAP 1000 mg/kg, NAC 100 mg/kg (P), time 0 h
  percentage of surviving animals: 100%
Group X: APAP 1000 mg/kg, NAC 100 mg/kg (P), time 6 h
  percentage of surviving animals: 100%
Group X: APAP 1000 mg/kg, NAC 100 mg/kg (P), time 8 h
  percentage of surviving animals: 100%
Group X: APAP 1000 mg/kg, NAC 100 mg/kg (P), time 9 h
  percentage of surviving animals: 100%
Group X: APAP 1000 mg/kg, NAC 100 mg/kg (P), time 10 h
  percentage of surviving animals: 100%
Group X: APAP 1000 mg/kg, NAC 100 mg/kg (P), time 11 h
  percentage of surviving animals: 100%
Group X: APAP 1000 mg/kg, NAC 100 mg/kg (P), time 12 h
  percentage of surviving animals: 100%
Group X: APAP 1000 mg/kg, NAC 100 mg/kg (P), time 13 h
  percentage of surviving animals: 100%
Group X: APAP 1000 mg/kg, NAC 100 mg/kg (P), time 14 h
  percentage of surviving animals: 90%
Group X: APAP 1000 mg/kg, NAC 100 mg/kg (P), time 15 h
  percentage of surviving animals: 80%
Group X: APAP 1000 mg/kg, NAC 100 mg/kg (P), time 16 h
  percentage of surviving animals: 60%
Group X: APAP 1000 mg/kg, NAC 100 mg/kg (P), time 17 h
  percentage of surviving animals: 60%
Group X: APAP 1000 mg/kg, NAC 100 mg/kg (P), time 18 h
  percentage of surviving animals: 50%
Group X: APAP 1000 mg/kg, NAC 100 mg/kg (P), time 20 h
  percentage of surviving animals: 40%
Group X: APAP 1000 mg/kg, NAC 100 mg/kg (P), time 22 h
  percentage of surviving animals: 40%
Group X: APAP 1000 mg/kg, NAC 100 mg/kg (P), time 24 h
  percentage of surviving animals: 40%
Group XI: APAP 1000 mg/kg, NAC 200 mg/kg (P), time 0 h
  percentage of surviving animals: 100%
Group XI: APAP 1000 mg/kg, NAC 200 mg/kg (P), time 6 h
  percentage of surviving animals: 100%
Group XI: APAP 1000 mg/kg, NAC 200 mg/kg (P), time 8 h
  percentage of surviving animals: 100%
Group XI: APAP 1000 mg/kg, NAC 200 mg/kg (P), time 9 h
  percentage of surviving animals: 100%
Group XI: APAP 1000 mg/kg, NAC 200 mg/kg (P), time 10 h
  percentage of surviving animals: 100%
Group XI: APAP 1000 mg/kg, NAC 200 mg/kg (P), time 11 h
  percentage of surviving animals: 90%
Group XI: APAP 1000 mg/kg, NAC 200 mg/kg (P), time 12 h
  percentage of surviving animals: 90%
Group XI: APAP 1000 mg/kg, NAC 200 mg/kg (P), time 13 h
  percentage of surviving animals: 90%
Group XI: APAP 1000 mg/kg, NAC 200 mg/kg (P), time 14 h
  percentage of surviving animals: 90%
Group XI: APAP 1000 mg/kg, NAC 200 mg/kg (P), time 15 h
  percentage of surviving animals: 90%
Group XI: APAP 1000 mg/kg, NAC 200 mg/kg (P), time 16 h
  percentage of surviving animals: 80%
Group XI: APAP 1000 mg/kg, NAC 200 mg/kg (P), time 17 h
  percentage of surviving animals: 80%
Group XI: APAP 1000 mg/kg, NAC 200 mg/kg (P), time 18 h
  percentage of surviving animals: 60%
Group XI: APAP 1000 mg/kg, NAC 200 mg/kg (P), time 20 h
  percentage of surviving animals: 60%
Group XI: APAP 1000 mg/kg, NAC 200 mg/kg (P), time 22 h
  percentage of surviving animals: 60%
Group XI: APAP 1000 mg/kg, NAC 200 mg/kg (P), time 24 h
  percentage of surviving animals: 60%
Group XII: APAP 1000 mg/kg, NAC 300 mg/kg (P), time 0 h
  percentage of surviving animals: 100%
Group XII: APAP 1000 mg/kg, NAC 300 mg/kg (P), time 6 h
  percentage of surviving animals: 100%
Group XII: APAP 1000 mg/kg, NAC 300 mg/kg (P), time 8 h
  percentage of surviving animals: 100%
Group XII: APAP 1000 mg/kg, NAC 300 mg/kg (P), time 9 h
  percentage of surviving animals: 90%
Group XII: APAP 1000 mg/kg, NAC 300 mg/kg (P), time 10 h
  percentage of surviving animals: 90%
Group XII: APAP 1000 mg/kg, NAC 300 mg/kg (P), time 11 h
  percentage of surviving animals: 90%
Group XII: APAP 1000 mg/kg, NAC 300 mg/kg (P), time 12 h
  percentage of surviving animals: 90%
Group XII: APAP 1000 mg/kg, NAC 300 mg/kg (P), time 13 h
  percentage of surviving animals: 90%
Group XII: APAP 1000 mg/kg, NAC 300 mg/kg (P), time 14 h
  percentage of surviving animals: 90%
Group XII: APAP 1000 mg/kg, NAC 300 mg/kg (P), time 15 h
  percentage of surviving animals: 90%
Group XII: APAP 1000 mg/kg, NAC 300 mg/kg (P), time 16 h
  percentage of surviving animals: 90%
Group XII: APAP 1000 mg/kg, NAC 300 mg/kg (P), time 17 h
  percentage of surviving animals: 90%
Group XII: APAP 1000 mg/kg, NAC 300 mg/kg (P), time 18 h
  percentage of surviving animals: 80%
Group XII: APAP 1000 mg/kg, NAC 300 mg/kg (P), time 20 h
  percentage of surviving animals: 80%
Group XII: APAP 1000 mg/kg, NAC 300 mg/kg (P), time 22 h
  percentage of surviving animals: 80%
Group XII: APAP 1000 mg/kg, NAC 300 mg/kg (P), time 24 h
  percentage of surviving animals: 80%
Group XIII: APAP 1000 mg/kg, NAC 100 mg/kg (C), time 0 h
  percentage of surviving animals: 100%
Group XIII: APAP 1000 mg/kg, NAC 100 mg/kg (C), time 6 h
  percentage of surviving animals: 100%
Group XIII: APAP 1000 mg/kg, NAC 100 mg/kg (C), time 8 h
  percentage of surviving animals: 90%
Group XIII: APAP 1000 mg/kg, NAC 100 mg/kg (C), time 9 h
  percentage of surviving animals: 80%
Group XIII: APAP 1000 mg/kg, NAC 100 mg/kg (C), time 10 h
  percentage of surviving animals: 60%
Group XIII: APAP 1000 mg/kg, NAC 100 mg/kg (C), time 11 h
  percentage of surviving animals: 50%
Group XIII: APAP 1000 mg/kg, NAC 100 mg/kg (C), time 12 h
  percentage of surviving animals: 50%
Group XIII: APAP 1000 mg/kg, NAC 100 mg/kg (C), time 13 h
  percentage of surviving animals: 40%
Group XIII: APAP 1000 mg/kg, NAC 100 mg/kg (C), time 14 h
  percentage of surviving animals: 30%
Group XIII: APAP 1000 mg/kg, NAC 100 mg/kg (C), time 15 h
  percentage of surviving animals: 20%
Group XIII: APAP 1000 mg/kg, NAC 100 mg/kg (C), time 16 h
  percentage of surviving animals: 20%
Group XIII: APAP 1000 mg/kg, NAC 100 mg/kg (C), time 17 h
  percentage of surviving animals: 20%
Group XIII: APAP 1000 mg/kg, NAC 100 mg/kg (C), time 18 h
  percentage of surviving animals: 10%
Group XIII: APAP 1000 mg/kg, NAC 100 mg/kg (C), time 20 h
  percentage of surviving animals: 10%
Group XIII: APAP 1000 mg/kg, NAC 100 mg/kg (C), time 22 h
  percentage of surviving animals: 10%
Group XIII: APAP 1000 mg/kg, NAC 100 mg/kg (C), time 24 h
  percentage of surviving animals: 10%
Group XIV: APAP 1000 mg/kg, NAC 300 mg/kg (C), time 0 h
  percentage of surviving animals: 100%
Group XIV: APAP 1000 mg/kg, NAC 300 mg/kg (C), time 6 h
  percentage of surviving animals: 100%
Group XIV: APAP 1000 mg/kg, NAC 300 mg/kg (C), time 8 h
  percentage of surviving animals: 100%
Group XIV: APAP 1000 mg/kg, NAC 300 mg/kg (C), time 9 h
  percentage of surviving animals: 90%
Group XIV: APAP 1000 mg/kg, NAC 300 mg/kg (C), time 10 h
  percentage of surviving animals: 80%
Group XIV: APAP 1000 mg/kg, NAC 300 mg/kg (C), time 11 h
  percentage of surviving animals: 80%
Group XIV: APAP 1000 mg/kg, NAC 300 mg/kg (C), time 12 h
  percentage of surviving animals: 60%
Group XIV: APAP 1000 mg/kg, NAC 300 mg/kg (C), time 13 h
  percentage of surviving animals: 40%
Group XIV: APAP 1000 mg/kg, NAC 300 mg/kg (C), time 14 h
  percentage of surviving animals: 40%
Group XIV: APAP 1000 mg/kg, NAC 300 mg/kg (C), time 15 h
  percentage of surviving animals: 40%
Group XIV: APAP 1000 mg/kg, NAC 300 mg/kg (C), time 16 h
  percentage of surviving animals: 30%
Group XIV: APAP 1000 mg/kg, NAC 300 mg/kg (C), time 17 h
  percentage of surviving animals: 30%
Group XIV: APAP 1000 mg/kg, NAC 300 mg/kg (C), time 18 h
  percentage of surviving animals: 30%
Group XIV: APAP 1000 mg/kg, NAC 300 mg/kg (C), time 20 h
  percentage of surviving animals: 20%
Group XIV: APAP 1000 mg/kg, NAC 300 mg/kg (C), time 22 h
  percentage of surviving animals: 20%
Group XIV: APAP 1000 mg/kg, NAC 300 mg/kg (C), time 24 h
  percentage of surviving animals: 20%
